Entries after “also recorded” stand apart in the source; their conditions may differ.

Holding throughout (type): cell-based
The test system of assay [1] is HT1080 cells. In words: γH2AX immunofluorescence ICS DA and nuclear intensity in HT1080 cells. On the procedure: (§1) Cells were plated in 8-well […] slides (Thermo or Ibidi) to achieve 50% confluence overnight. Cells were then treated and fixed with 4% paraformaldehyde in PBS at room temperature for 10 minutes. Antibody staining was performed according to the manufacturers protocol. Following fluorescent secondary antibody labeling, prolong gold with DAPI (Cell Signaling Technologies) was added and samples were stored for up to 1 week prior to imaging.
ICS analysis was performed in MATLAB as previously described (41). Briefly, nuclei were segmented from the DAPI channel with the MATLAB function, imbinarize, converting the greyscale image to a binary dependent on an automatically defined threshold. The MATLAB function, regionprops, was used to identify single nuclei as objects. Each nucleus was used as a mask to perform ICS analysis on the antibody-stained channel, within size limitations for a nucleus (objects >400 and <3000 pixels). To ensure the analysis of antibody stained nuclei, nuclei under an average intensity of 200 au after background subtraction were excluded. The spatial autocorrelation functions were calculated using Fourier methods, then fit to a 2D Gaussian using a nonlinear least-squares algorithm (41). Using the outputs of the fitting, the mean number of independent emitting fluorescent entities per focal spot area and subsequently the DA were determined (59). DA measurements across experiments were normalized by the control in each dataset. […] Any DA values exceeding 3 standard deviations from the mean were defined as incorrectly segmented and removed. Data were plotted in Prism and analysis performed in Prism or Excel.

Assay [2] deals with HT1080 cells. Nature of the assay: Dose response cell viability (Presto Blue) in HT1080 cells. To be noted: HT1080, 100 nM PDD00017273. On the procedure:
Cells were plated in a 96-well plate at 2×10^3 cells per well and treated with drug for 5 days in three replicate wells. Cell viability was then determined using Presto Blue (Thermo Fisher). Signal was averaged over 3 replicate wells and normalized to blank (no cells) as well as to the levels of untreated wells. A sigmoidal response curve was fit to the average of two experiments in Prism. PARPi z score was calculated for each PARPi using 9 cell lines. The average z score over three PARPi (veliparib, olaparib, talazoparib) was then determined as a representation of cell line PARPi sensitivity.

The subject of assay [3] is 7 cell lines. In words: γH2AX immunofluorescence DA and intensity in 7 cell lines. To be noted: all cell lines, 1 μM PARPi overnight. On the procedure: as §1
ICS analysis was performed in MATLAB as previously described (41). Briefly, nuclei were segmented from the DAPI channel with the MATLAB function, imbinarize, converting the greyscale image to a binary dependent on an automatically defined threshold. The MATLAB function, regionprops, was used to identify single nuclei as objects. Each nucleus was used as a mask to perform ICS analysis on the antibody-stained channel, within size limitations for a nucleus (objects >400 and <3000 pixels). To ensure the analysis of antibody stained nuclei, nuclei under an average intensity of 200 au after background subtraction were excluded. The spatial autocorrelation functions were calculated using Fourier methods, then fit to a 2D Gaussian using a nonlinear least-squares algorithm (41). Using the outputs of the fitting, the mean number of independent emitting fluorescent entities per focal spot area and subsequently the DA were determined (59). […]

Assay [4] deals with HCC1937 cells. Nature of the assay: 53BP1-mApple condensate anisotropy (homo-FRET) and intensity in HCC1937 cells. The note with it: HCC1937, 1 μM PARPi and 100 μM TMZ for 1 hour. On the procedure: All fluorescence imaging was performed on an Olympus FV1000 multiphoton/confocal microscope. Anisotropy measurements were performed through custom modifications to the imaging system as previously described (30). Briefly, linear polarization of two photon excitation light at 910 nm (MaiTai femtosecond laser, Spectra Physics) was controlled by a glan-thompson prism and half wave plate. […] was collected in orthogonal orientations through two detectors, parallel and perpendicular to excitation polarization, through a polarizing beam splitter that replaced a dichroic mirror in the emission filter cube. The alignment and detector gain and noise were validated each imaging session through measurements of a standard slide. Images were taken with an Olympus 25× XLPlan N objective, NA 1.05, and 3× digital zoom. Confocal imaging was performed with an Olympus XLUMPlanFL N 20× objective, NA 1.00 with chromatic correction, and 3× digital zoom.
Cells were grown on 12 mm round, uncoated, sterilized glass coverslips in 24-well plates for 24 hours. Cells were treated with PARPi and 100 μM TMZ for 1 hour or 10 nM GMX1778 overnight followed by 100 μM TMZ for 1 hour. TMZ was added to stimulate new DNA damage induced condensates in the presence of PARPi or NAD″ depletion. Cells were then transferred to the microscope for anisotropy imaging. Images were analyzed in MATLAB. Nuclei were segmented through intensity thresholding and condensates were segmented through further intensity thresholding with a higher threshold. Values of segmented nuclei and condensates were determined through the regionprops function. Segmentation was corrected through area restrictions to ensure that regions of interest were isolated condensates. The thresholding parameters were consistent throughout experiments. The average intensity and anisotropy of each segmented nuclei or condensate was then calculated. Data were plotted in Prism and analysis performed in Prism or Excel.

For PDD00017273, in assay [1] (HT1080, 100 nM PDD00017273 overnight), the “γH2AX DA induced by 1 μM veliparib or talazoparib, with vs without PDD00017273” value was “did not alter the veliparib or talazoparib induced γH2AX DA; also recorded: no significant differences”. In assay [2], the “HT1080 dose response to veliparib, with vs without PDD00017273” value is recorded as “did not impact HT1080 response to veliparib”.

In the case of `Cn1ncnc1[C@H]1c2n[nH]c(=O)c3cc(F)cc(c23)N[C@@H]1c1ccc(F)cc1` [talazoparib], the “γH2AX levels measured by intensity” value in assay [1] (HT1080, 1 μM PARPi overnight) was “high levels of γH2AX”. Further, the “γH2AX levels (intensity) over control” value in assay [3] was “increased γH2AX levels”. For the same molecule, the “53BP1-mApple condensate anisotropy vs control” value in assay [4] is listed as “significantly lower condensate anisotropy compared to control”.

For the origin of these results see patent US20250251402A1, “METHODS OF DETECTING MOLECULAR AGGREGATES USING IMAGE CORRELATION SPECTROSCOPY (ICS)” (The General Hospital Corporation, priority 2022, published 2025).
